Data published in patent US12077483B2, “Modified amine lipids” (Intellia Therapeutics, Inc., priority 2018, dated 2024).
“And” between values parts separate entries of the source, which are not always exact repeats. Equal entries are not always repeated.

Columns and labels:
[1] = RNA encapsulation efficiency of LNP (Ribogreen fluorescence assay); assay type: physicochemical; settings: LNP with the compound as amine lipid, composition ratio (mol %) 50/9/38/3 for Cmpnd 49, 50/10/38.5/1.5 for the others
Outline: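 LNP samples diluted in 1× TE with or without 0.2% Triton-X 100 for total or free RNA, stained ~10 min at room temperature in the dark with RiboGreen; fluorescence ex 488/em 525 nm against RNA standard curves. Encapsulation efficiency = (Total RNA−Free RNA)/Total RNA.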

[2] = LNP average particle size and polydispersity by dynamic light scattering; assay type: physicochemical; settings: LNP with the compound as amine lipid, composition ratio (mol %) 50/9/38/3 for Cmpnd 49, 50/10/38.5/1.5 for the others
Outline: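 LNPs were diluted in PBS to a count rate of about 200-400 kcps and measured by DLS on a Zetasizer. Size is the intensity-weighted Z-average diameter, reported with number-average diameter, and the polydispersity index describes the spread of sizes around the mean.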

mouse TTR = assay: Serum TTR ELISA in mice after LNP delivery; assay type: in vivo; settings: mouse serum, relative to TSS control of same experiment
Outline: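 Mouse TTR in serum was quantified by ELISA (samples diluted e.g. 10,000- and/or 2,500-fold) 6–7 days after dosing CD-1 females with LNP, typically 0.1 mpk. Values are reported relative to vehicle-treated controls (%).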

[3] = pKa of amine lipid by TNS fluorescence; assay type: physicochemical; settings: probe TNS (6-(p-toluidino)-2-naphthalenesulfonic acid sodium salt), unformulated amine lipid in ethanol, sodium phosphate buffers -9.0
Outline: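 pKa derived from a sigmoidal fit of normalized TNS fluorescence (321 nm excitation, 448 nm emission) versus pH. Lipid from ethanol stock diluted to about 100 μM final in 0.1 M phosphate buffers, pH 4.5–9.0.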

SMILES | Encapsulation (%) ([1]; Expt. 10) | Num Ave Size (nm) ([2]; Expt. 10) | PDI ([2]; Expt. 10) | Z-Ave Size (nm) ([2]; Expt. 10) | pKa [3] | Encapsulation (%) ([1]; Expt. 9) | Num Ave Size (nm) ([2]; Expt. 9) | PDI ([2]; Expt. 9) | Z-Ave Size (nm) ([2]; Expt. 9) | Encapsulation (%) ([1]; Expt. 6) | Num Ave Size (nm) ([2]; Expt. 6) | PDI ([2]; Expt. 6) | Z-Ave Size (nm) ([2]; Expt. 6) | Serum TTR % TSS (mouse TTR; dose 0.03 mpk) [% TSS] | Serum TTR % TSS (mouse TTR; dose 0.1 mpk) [% TSS] | Serum TTR % TSS (mouse TTR; dose 0.03 mpk, 0.03 mg/kg)
CCCCC/C=C\C/C=C\CCCCCCCC(=O)OCC(COC(=O)CCCCCCC/C=C\C/C=C\CCCCC)OC(=O)CCC(CCCCCCCC)OC(=O)OCCCCN(CC)CC (stereo not shown) [Compound 95, 2-((4-(((4-(diethylamino)butoxy)carbonyl)oxy)dodecanoyl)oxy)propane-1,3-diyl (9Z,9′Z,12Z,12′Z)-bis(octadeca-9,12-dienoate)] | 98 | 88 | 0.01 | 105 | 6.15 |  |  |  |  |  |  |  |  | 77 |  | 
CCCCC/C=C\C/C=C\CCCCCCCC(=O)OCC(COC(=O)CCCCCCC/C=C\C/C=C\CCCCC)OC(=O)CCC(CCCCCCCC)OC(=O)NCCN(CC)CC (stereo not shown) [Compound 96, 2-((4-(((2-(diethylamino)ethyl)carbamoyl)oxy)dodecanoyl)oxy)propane-1,3-diyl (9Z,9′Z,12Z,12′Z)-bis(octadeca-9,12-dienoate)] | 98 | 73 | 0.03 | 89 | 6.14 |  |  |  |  |  |  |  |  | 70 |  | 
CCCCC/C=C\C/C=C\CCCCCCCC(=O)OCC(COC(=O)CCCCCCC/C=C\C/C=C\CCCCC)OC(=O)CCCC(CCCCCCCC)OC(=O)NCCN(C)CC (stereo not shown) [Compound 97, 2-((5-(((2-(ethyl(methyl)amino)ethyl)carbamoyl)oxy)tridecanoyl)oxy)propane-1,3-diyl (9Z,9′Z,12Z,12′Z)-bis(octadeca-9,12-dienoate)] | 98 | 75 | 0.03 | 92 | 6.38 |  |  |  |  |  |  |  |  | 79 |  | 
CCCCC/C=C\C/C=C\CCCCCCCC(=O)OCC(COC(=O)CCCCCCC/C=C\C/C=C\CCCCC)COC(=O)C(C)(C)C(CCCCCC)OC(=O)NCCN1CCCC1 (stereo not shown) [Compound 100, 2-(((2,2-dimethyl-3-(((2-(pyrrolidin-1-yl)ethyl)carbamoyl)oxy)nonanoyl)oxy)methyl)propane-1,3-diyl (9Z,9′Z,12Z,12′Z)-bis(octadeca-9,12-dienoate)] |  |  |  |  | 6.6 | 99 | 83 | 0.05 | 102 |  |  |  |  | 46.68 |  | 
CCCCC/C=C\C/C=C\CCCCCCCC(=O)OCC(COC(=O)CCCCCCC/C=C\C/C=C\CCCCC)OC(=O)CCC(CC(CC)CC)OC(=O)NCCN(C)CC (stereo not shown) [Compound 103, 2-((6-ethyl-4-(((2-(ethyl(methyl)amino)ethyl)carbamoyl)oxy)octanoyl)oxy)propane-1,3-diyl (9Z,9′Z,12Z,12′Z)-bis(octadeca-9,12-dienoate)] |  |  |  |  | 6.09 |  |  |  |  | 91 | 82 | 0.01 | 102.00 | 72.23 | 29.05 | 

Continued, in another order:

Encapsulation (%) ([1]; Expt. 10) | Num Ave Size (nm) ([2]; Expt. 10) | PDI ([2]; Expt. 10) | Z-Ave Size (nm) ([2]; Expt. 10) | pKa [3] | Encapsulation (%) ([1]; Expt. 9) | Num Ave Size (nm) ([2]; Expt. 9) | PDI ([2]; Expt. 9) | Z-Ave Size (nm) ([2]; Expt. 9) | Encapsulation (%) ([1]; Expt. 6) | Num Ave Size (nm) ([2]; Expt. 6) | PDI ([2]; Expt. 6) | Z-Ave Size (nm) ([2]; Expt. 6) | SMILES | Serum TTR % TSS (mouse TTR; dose 0.03 mpk) [% TSS] | Serum TTR % TSS (mouse TTR; dose 0.1 mpk) [% TSS] | Serum TTR % TSS (mouse TTR; dose 0.03 mpk, 0.03 mg/kg)
 |  |  |  | 6.53 | 99 | 64 | 0.02 | 80 |  |  |  |  | CCCCC/C=C\C/C=C\CCCCCCCC(=O)OCC(COC(=O)CCCCCCC/C=C\C/C=C\CCCCC)OC(=O)CCC(CCC(C)CCCC(C)C)OC(=O)NCCN1CCCC1 (stereo not shown) [Compound 105, 2-((7,11-dimethyl-4-(((2-(pyrrolidin-1l-yl)ethyl)carbamoyl)oxy)dodecanoyl)oxy)propane-1,3-diyl (9Z,9′Z,12Z,12′Z)-bis(octadeca-9,12-dienoate)] | 47.97 |  | 
 |  |  |  | 6.8 | 99 | 74 | 0.01 | 91 |  |  |  |  | CCCCC/C=C\C/C=C\CCCCCCCC(=O)OCC(COC(=O)CCCCCCC/C=C\C/C=C\CCCCC)OC(=O)CCC(CC(CC)CC)OC(=O)NCCN1CCCC1 (stereo not shown) [Compound 106, 2-((6-ethyl-4-(((2-(pyrrolidin-1-yl)ethyl)carbamoyl)oxy)octanoyl)oxy)propane-1,3-diyl (9Z,9′Z,12Z,12′Z)-bis(octadeca-9,12-dienoate)] |  |  | 82.47 % TSS and 88.7 % TSS
 |  |  |  | 6.35 | 98 | 72 | 0.03 | 89 |  |  |  |  | CCCCC/C=C\C/C=C\CCCCCCCC(=O)OCC(COC(=O)CCCCCCC/C=C\C/C=C\CCCCC)OC(=O)CCC(CC/C=C\CCCCC)OC(=O)NCCN(C)CC (stereo not shown) [Compound 107, 2-(((Z)-4-(((2-(ethyl(methyl)amino)ethyl)carbamoyl)oxy)tridec-7-enoyl)oxy)propane-1,3-diyl (9Z,9′Z,12Z,12′Z)-bis(octadeca-9,12-dienoate)] | 58.53 |  | 
